# Results from ChEMBL document CHEMBL1139960 (Bioorg Med Chem Lett, 2007).
# Activity calls are given as the source filed them. The rule behind the calls is not given here.
# Key:
# [1] = (§1) Antagonist activity at GABAC rho1 receptor expressed in Xenopus laevis oocytes assessed as reduction of GABA-induced chloride ion currents; type: functional, cell-based; details: Homo sapiens, Oocyte
# Oocyte [2] = experiment: as §1; type: functional, cell-based; details: Homo sapiens
# Oocyte [3] = experiment: Activity at GABAC rho1 receptor expressed in Xenopus laevis oocytes assessed as activation of GABA-induced chloride ion currents; type: cell-based; details: Homo sapiens
SMILES,IC50 [1],Activity (Oocyte [2]),Activity (Oocyte [3])
CCCCP(=O)(O)OCCN,68.2 µM,,
NCCOP(=O)(O)Cc1ccccc1,,inactive,inactive
CP(=O)(O)C1=CCNCC1,0.67 µM,,
